Source: patent US20190292521A1, “COMPOSITION FOR PROMOTING GROWTH OF STEM CELLS COMPRISING PHYTOSPHINGOSINE-1-PHOSPHATE OR DERIVATIVES THEREOF, AND COMPOSITION FOR CULTURING MEDIA OF STEM CELLS COMPRISING SAME” (AXCESO BIOPHARMA CO., LTD., priority 2016, published 2019)
Where two headings read alike, the source gives them in different places.

Key:
Assay type in all cases: cell-based
[1] = test system: human-derived adipose stem cells; experiment: Stem cell viability according to concentration of fetal bovine serum (serum-free or low-serum medium); settings: read-out: viability as compared with 10% fetal bovine serum
Procedure: Human-derived adipose stem cells were cultured in DMEM medium having different concentrations of fetal bovine serum at 37° C. under 5% CO2. After culturing for 24 hours, the cells were washed twice with PBS at 37° C. to remove the serum components. Then, the cells were cultured in new DMEM medium containing 1 μM P1P and 1% fetal bovine serum. After 4 days, the absorbance was measured at 450 nm using an Ez-Cytox Cell Viability Assay Kit (Daeil Biotech) to measure the viability of stem cells according the concentration of fetal bovine serum and P1P. For the control group, an experiment was performed under the same conditions as above except that P1P was not included.

[2] = test system: human-derived adipose stem cells; experiment: Viability of stem cells with oxidative stress induced by hydrogen peroxide (H2O2); settings: 6 hours after H2O2
Procedure: Human-derived adipose stem cells were cultured in DMEM medium containing 10% fetal bovine serum and 1% penicillin/streptomycin at 37° C. under 5% CO2. After culturing the cells for 24 hours, P1P, cP1P and NAPS-1-P were dissolved in DMSO to a concentration of 2 mM, and appropriately diluted and added to the medium such that the final concentrations were 10 nM, 100 nM, 1000 nM. After 1 hour of culture, 350 μM of H2O2 was added to the stem cells and cultured. After 6 hours, the absorbance was measured at 450 nm using Ez-Cytox, and the effect of P1P and derivatives thereof on the viability of stem cells against oxidative stress was measured. For the control group, an experiment was performed under the same conditions as above except that P1P, cyclic P1P, and NAPS-1-P were not included.

[3] = test system: Human mesenchymal stem cells; experiment: Measurement of stem cell proliferation capacity (Ez-Cytox, absorbance 450 nm); settings: 1 uM; for increase of proliferation effect: cultured for 7 days, vs control without compound; for proliferation of stem cells: human mesenchymal stem cells, FIG. 1
Procedure: (§1) Human mesenchymal stem cells were cultured in DMEM medium (Invitrogen) containing 10% fetal bovine serum and 1% penicillin/streptomycin at 37° C. under 5% CO2, and the medium was changed every 3 days. After culturing the cells for 24 hours, P1P, cyclic P1P, and NAPS-1-P were dissolved in DMSO (Sigma) to a concentration of 2 mM, and appropriately diluted and added to the medium such that the final concentration was 1 μM. The absorbance was measured at 450 nm using Ez-Cytox at 24 hours (1 day), 48 hours (2 days), 120 hours (5 days) and 168 hours (7 days) after the addition, and the proliferation capacity of the stem cells according to P1P, cyclic P1P and NAPS-1 were measured. For the control group, an experiment was performed under the same conditions as above except that P1P, cyclic P1P and NAPS-1-P were not included.

[4] = test system: human-derived adipose stem cells; experiment: Growth promoting capacity on human-derived adipose stem cells; settings: cultured for 2 days, different concentrations; optimal effect at 10 nM and 100 nM, FIG. 2
Procedure: as §1
In addition, the growth promoting-capacity of human-derived adipose stem cells was examined.

[5] = test system: human-derived adipose stem cells; experiment: Osteogenic differentiation capacity (Alizarin Red S staining); settings: osteogenic differentiation medium
Procedure: Human-derived adipose stem cells were cultured in DMEM medium containing 10% fetal bovine serum and 1% penicillin/streptomycin at 37° C. under 5% CO2. After 24 hours of culture, P1P and derivatives thereof were diluted with the medium and added. After 24 hours of culture, the medium was replaced with a differentiation medium and changed with a differentiation medium every 3 days. The cells were cultured in alpha-DEM medium containing 10% fetal bovine serum, 10 nM dexamethasone, 0.2 mM ascorbic acid, 10 mM beta-glycerol phosphate and 1% penicillin/streptomycin at 37° C. under 5% CO2 as a composition for the differentiation medium. After 2 to 4 weeks, the stem cells were fixed and stained with Alizarin Red S. After removing the stem cell culture medium, the cells were washed 3 times with PBS, and after removal of PBS, the cells were fixed using 4% formaldehyde solution for 20 minutes at room temperature. After washing the cells 3 times with PBS, the cells were treated with a 2% Alizarin Red S solution for 20 minutes. […] For the control group, an experiment was performed under the same conditions as above except that P1P, cyclic P1P, and NAPS-1-P were not included.

[6] = fetal bovine serum reduced to 2%

Structure (SMILES)	viability at 1 µM [1, 6] [%]	viability at 1 µM ([1]; serum-free medium) [%]	Cell viability (%) by H2O2 treatment (350 uM) ([2]; compound 10 nM) [%]	Cell viability (%) by H2O2 treatment (350 uM) ([2]; compound 100 nM) [%]	Cell viability (%) by H2O2 treatment (350 uM) ([2]; compound 1000 nM) [%]	increase of proliferation effect [3] [fold]	proliferation of stem cells [3]	cell growth / proliferation effect [4]	osteogenic differentiation capacity [5]
CCCCCCCCCCCCCC[C@@H](O)[C@@H](O)[C@H](COP(=O)(O)O)NC(C)=O [NAPS-1-P, N-acetyl phytosphingosine-1-phosphate]	70 to 80	~50	75	83	86	2	promoted the proliferation of stem cells to a similar level	showed a higher proliferation effect	
CCCCCCCCCCCCCC[C@@H](O)[C@H]1OP(=O)(O)OC[C@@H]1N [cP1P, O-cyclic P1P]	70 to 80	~50	77	84	86	2	promoted the proliferation of stem cells to a similar level	showed a higher proliferation effect	remarkably improved
